Data as given in PubChem BioAssay (NCI).
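Cells were grown in 96-well plates and exposed to each compound for 48 hours at five concentrations; endpoints were interpolated linearly between bracketing concentrations, or set to the highest concentration if not reached. The concentration for full growth arrest is given as TGI.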

Experiments:
Experiment in all cases: NCI tumour cell line growth inhibition, 48 h
M14 melanoma = system: M14 melanoma
IGROV1 ovarian = system: IGROV1 ovarian
U251 CNS = system: U251 CNS
CAKI-1 renal = system: CAKI-1 renal
SK-OV-3 ovarian = system: SK-OV-3 ovarian
MOLT-4 leukemia = system: MOLT-4 leukemia
MCF7 breast = system: MCF7 breast
HOP-62 NSCLC = system: HOP-62 NSCLC
KM12 colon = system: KM12 colon
BT-549 breast = system: BT-549 breast

Compound	TGI (M14 melanoma) [µM]	TGI (IGROV1 ovarian) [µM]	TGI (U251 CNS) [µM]	TGI (CAKI-1 renal) [µM]	TGI (SK-OV-3 ovarian) [µM]	TGI (MOLT-4 leukemia) [µM]	TGI (MCF7 breast) [µM]	TGI (HOP-62 NSCLC) [µM]	TGI (KM12 colon) [µM]	TGI (BT-549 breast) [µM]
COC(=O)C(Cc1ccccc1)NP(=O)(O)OCC1OC(n2cc(F)c(=O)[nH]c2=O)CC1O (centres undefined)	> 100	> 100	> 100	> 100	> 100	> 93.9	> 100	> 100	> 100	> 100
COc1c(O)cc(O)c2c(=O)cc(-c3ccccc3)oc12	> 100	> 100	> 100	> 100	> 100	> 100	> 100	49.8	> 100	> 100
C=C(C)C(O)C(O)c1c(OC)ccc2ccc(=O)oc12 (centres undefined)	> 100	> 100	> 100	> 100	> 100	> 100	> 100	> 100	> 100	> 100
CC1(O)CC(=O)c2c(cc3ccc(-c4c5c(c(O)c6c(O)cccc46)C(=O)CC(C)(O)C5)c(O)c3c2O)C1 (centres undefined)	7.11	3.43	1.74	2.92	> 100	8.36	1.7	1.55	0.24	6.75
O=C(O)c1ccn(-c2cccc(-n3ccc(C(=O)O)n3)n2)n1	> 100	> 100	> 100	> 100	> 100	> 100	> 100	> 100	> 100	> 100
CCNC(=O)c1cc(/C=C/c2ccc([N+](=O)[O-])o2)nc2ccccc12	14.5	> 65.8	> 100	> 100	> 100	> 95.4	> 100	> 100	> 100	> 100
S=C1SCN(Cc2ccco2)CN1c1ccc(Br)cc1	29	45.7	57.9	42.7	73.2	47.4	31.3	51.9	31.7	44
CCOc1cc(C2CC(c3ccc(NS(=O)(=O)c4cc([N+](=O)[O-])ccc4C)cc3)=NN2c2ccc([N+](=O)[O-])cc2[N+](=O)[O-])ccc1O (centres undefined)	31.6	46.2	29.2	56.5	10.4	> 100	42.1	27.3	> 100	38.4
O=c1ccn(CC2(CO)CC(Cc3ccccc3)C2)c(=O)[nH]1 (centres undefined)		> 100	> 100	> 100	> 100	> 100	> 100	> 100	> 100	> 100
CC1(C)CC(=O)c2c(nc3ccc4ccccc4c3c2-c2ccc(NC(=O)CCCCCCCCC(=O)Nc3ccc(-c4c5c(nc6ccc7ccccc7c46)CC(C)(C)CC5=O)cc3)cc2)C1	> 100	> 100	> 100	> 100	> 100	> 100	> 100	> 100	> 100	> 100
CC(=O)Nc1ccc(OC2=CCN(C)CC2)cc1	> 100	> 100	> 100	> 100	> 100	> 100	> 100	> 100	> 100	> 100
CC1(C)[C@H]2CC[C@]1(C)[C@H](OC(=O)NNC(=O)O[C@@H]1C[C@@H]3CC[C@@]1(C)C3(C)C)C2	35.6	30.4	62.9	28.8	28.6	27.3	26.4	29.5	37.3	42.9
CCOC(=O)c1cc2c3c(c(C(C)=O)c(O)c2[nH]1)N(CC(C)CC)CC3 (centres undefined)		> 100	> 100	> 100	> 100	> 100	> 100		> 100	> 100
CCCCCCCCCCCCCCCCCCNc1ccn(C2OC(COP(=O)(O)OCC3OC(n4cc(F)c(NCCCCCCCCCCCCCCCCCC)nc4=O)CC3O)C(O)C2O)c(=O)n1 (centres undefined)	> 100	> 100	> 100	> 100	> 100	> 100	> 100	> 100	> 100	> 100
COc1cc(/C=C2/C[C@H]3[C@@H]4CC=C5C[C@@H](OC(C)=O)CC[C@]5(C)[C@H]4CC[C@]3(C)NC2=O)cc(OC)c1OC	> 100	69.6	46.5	> 100	60.3	91.4	> 100	73.1	> 100	55
CCCCCC(C)SC1(C(=O)OC)CC(OC(C)=O)C(NC(C)=O)C([C@H](OC(C)=O)[C@@H](COC(C)=O)OC(C)=O)O1 (some centres undefined)	> 100	> 100	> 100	> 100		> 100	> 100	> 100	> 100	> 100
CSc1n[nH]c(N)c1C(=O)Nc1ccc(C)cc1	> 100		> 100	> 100	> 100	> 100	> 100	> 100		> 100
COC(=O)[C@H]1CO[C@H]2C/C(C)=C/CC/C(C)=C/CC[C@@]3(C)O[C@@H]3C[C@H]21	> 50	> 50	> 50	> 50	> 50	28.7	> 50	> 50	18.4	33.8
CCN(C(=S)N[C@H](C(=O)N[C@@H](C)C(=O)OC)C(C)C)c1ccccc1	> 100	> 100	> 100	> 100	> 100	> 100	> 100	> 100	> 100	> 100
C#CCSC(C=C=C)P(=O)(OC(C)C)OC(C)C (centres undefined)	> 100	> 100	> 100	> 100	> 100	65.2	> 100	> 100	> 100	82.8
Cc1c2c(n(CCc3ccc(Cl)cc3)c1C)NC(c1ccccc1)C(C#N)S2(=O)=O (centres undefined)	> 100	> 100	> 100	> 100	> 100	11.6	> 60.1	> 100	> 100	> 100
